# Results from ChEMBL document CHEMBL5550169, “A consensus reverse docking approach for identification of a competitive inhibitor of acetyltransferase enhanced intracellular survival protein from Mycobacterium tuberculosis” (Bioorg Med Chem, 2024).
# Legend:
# [1] = tested on: Mycobacterium tuberculosis; assay: Antibacterial activity against Mycobacterium tuberculosis H37Ra measured after 7 days by resazurin reduction microplate assay; format: functional; settings: 168 h, time 7 day
# [2] = tested on: Mycobacterium tuberculosis; assay: Antibacterial activity against Mycobacterium tuberculosis H37Rv assessed as reduction in pellet formation measured after 7 to 14 days by alamar blue assay; format: functional; settings: time 7-14 day
# [3] = Tmax in female BALB/c mouse lungs at 100 mg/kg, po administered as single dose via oral gavage and measured upto 24 hrs by LC-MS analysis; format: ADME, organism-based; settings: lung
# [4] = tested on: Mycobacterium tuberculosis; assay: Antibacterial activity against Mycobacterium tuberculosis IAR2 assessed as reduction in pellet formation measured after 7 to 14 days by alamar blue assay; format: functional; settings: time 7-14 day
# [5] = Cmax in female BALB/c mouse lungs at 100 mg/kg, po administered as single dose via oral gavage and measured upto 24 hrs by LC-MS analysis; format: ADME, organism-based; settings: lung
# [6] = Tmax in female BALB/c mouse plasma at 100 mg/kg, po administered as single dose via oral gavage and measured upto 24 hrs by LC-MS analysis; format: ADME, organism-based
# [7] = Cmax in female BALB/c mouse plasma at 100 mg/kg, po administered as single dose via oral gavage and measured upto 24 hrs by LC-MS analysis; format: ADME, organism-based
# N-acetyltransferase Eis [8] = molecular target: T1, N-acetyltransferase Eis (Mycobacterium tuberculosis (strain ATCC 25618 / H37Rv), UniProt P9WFK7); assay: Inhibition of Mycobacterium tuberculosis H37Rv Eis protein using kanamycin as substrate preincubated for 10 mins followed by AcCoA addition and measured every 30 secs for 20 mins
# T1 sequence (P9WFK7 whole entry): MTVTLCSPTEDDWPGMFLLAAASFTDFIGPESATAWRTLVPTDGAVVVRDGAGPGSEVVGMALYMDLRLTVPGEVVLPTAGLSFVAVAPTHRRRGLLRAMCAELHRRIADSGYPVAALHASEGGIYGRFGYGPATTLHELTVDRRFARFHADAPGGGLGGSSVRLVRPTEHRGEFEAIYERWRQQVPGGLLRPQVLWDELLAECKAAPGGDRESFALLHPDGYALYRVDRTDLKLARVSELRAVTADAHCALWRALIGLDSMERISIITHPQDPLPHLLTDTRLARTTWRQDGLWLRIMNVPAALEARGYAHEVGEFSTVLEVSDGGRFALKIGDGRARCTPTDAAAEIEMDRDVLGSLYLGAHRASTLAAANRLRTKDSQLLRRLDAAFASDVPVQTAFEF
# [9] = tested on: Mycobacterium tuberculosis; assay: Antibacterial activity against Mycobacterium tuberculosis H37Ra measured after 7 days in presence of moxifloxacin by resazurin reduction microplate assay based checkerboard assay; format: functional; settings: 168 h, time 7 day
# N-acetyltransferase Eis [10] = molecular target: T1, N-acetyltransferase Eis; assay: Competitive inhibition of Mycobacterium tuberculosis H37Rv Eis protein using varying concentrations of kanamycin as substrate assessed as inhibition constant by Lineweaver-Burk plot analysis
# [11] = tested on: Mycobacterium tuberculosis; assay: Additive antibacterial activity against Mycobacterium tuberculosis H37Ra assessed as fractional inhibitory concentration index at 3 to 50 uM measured after 7 days in presence of rifampicin by resazurin reduction microplate assay based checkerboard assay; format: functional; settings: dose 3-50 µM; time 7 day
# [12] = tested on: Mycobacterium tuberculosis; assay: Additive antibacterial activity against Mycobacterium tuberculosis H37Ra assessed as fractional inhibitory concentration index at 3 to 50 uM measured after 7 days in presence of isoniazid by resazurin reduction microplate assay based checkerboard assay; format: functional; settings: dose 3-50 µM; time 7 day
# [13] = tested on: Mycobacterium tuberculosis; assay: Additive antibacterial activity against Mycobacterium tuberculosis H37Ra assessed as moxifloxacin MIC at 3 to 50 uM measured after 7 days by resazurin reduction microplate assay based checkerboard assay; format: functional; settings: 168 h, dose 3-50 µM, time 7 day
# N-acetyltransferase Eis [14] = molecular target: T1, N-acetyltransferase Eis; assay: Inhibition of Mycobacterium tuberculosis H37Rv Eis protein using kanamycin as substrate preincubated for 10 mins followed by AcCoA addition and measured every 30 secs for 30 mins
# [15] = tested on: Mycobacterium tuberculosis; assay: Additive antibacterial activity against Mycobacterium tuberculosis H37Ra assessed as fractional inhibitory concentration index at 3 to 50 uM measured after 7 days in presence of moxifloxacin by resazurin reduction microplate assay based checkerboard assay; format: functional; settings: dose 3-50 µM; time 7 day
# [16] = tested on: Mycobacterium tuberculosis; assay: Antibacterial activity against Mycobacterium tuberculosis H37Ra measured after 7 days in presence of isoniazid by resazurin reduction microplate assay based checkerboard assay; format: functional; settings: 168 h, time 7 day
# [17] = molecular target: T2, N-acetyltransferase Eis (Mycobacterium tuberculosis (strain ATCC 25618 / H37Rv)) (UniProt P9WFK7); assay: Binding affinity to Mycobacterium tuberculosis H37Rv Eis protein assessed as gibbs free energy
# T2 sequence (whole entry): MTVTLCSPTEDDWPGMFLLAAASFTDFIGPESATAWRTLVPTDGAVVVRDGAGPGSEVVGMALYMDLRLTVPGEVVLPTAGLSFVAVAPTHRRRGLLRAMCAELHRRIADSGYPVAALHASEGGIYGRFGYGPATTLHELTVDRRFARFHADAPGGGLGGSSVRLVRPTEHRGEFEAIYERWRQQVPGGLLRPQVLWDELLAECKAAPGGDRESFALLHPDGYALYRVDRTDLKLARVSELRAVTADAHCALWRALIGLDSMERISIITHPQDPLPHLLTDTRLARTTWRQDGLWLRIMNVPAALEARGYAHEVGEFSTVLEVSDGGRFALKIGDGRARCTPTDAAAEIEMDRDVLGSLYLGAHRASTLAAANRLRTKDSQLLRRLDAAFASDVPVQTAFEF
# [18] = tested on: Mycobacterium tuberculosis; assay: Antibacterial activity against Mycobacterium tuberculosis H37Ra measured after 7 days in presence of ethambutol by resazurin reduction microplate assay based checkerboard assay; format: functional; settings: 168 h, time 7 day
# [19] = tested on: Mycobacterium tuberculosis; assay: Additive antibacterial activity against Mycobacterium tuberculosis H37Ra assessed as ethambutol MIC at 3 to 50 uM measured after 7 days by resazurin reduction microplate assay based checkerboard assay; format: functional; settings: 168 h, dose 3-50 µM, time 7 day
# [20] = tested on: Mycobacterium tuberculosis; assay: Antibacterial activity against Mycobacterium tuberculosis H37Ra measured after 7 days in presence of rifampicin by resazurin reduction microplate assay based checkerboard assay; format: functional; settings: 168 h, time 7 day
# [21] = tested on: Mycobacterium tuberculosis; assay: Additive antibacterial activity against Mycobacterium tuberculosis H37Ra assessed as rifampicin MIC at 3 to 50 uM measured after 7 days by resazurin reduction microplate assay based checkerboard assay; format: functional; settings: 168 h, dose 3-50 µM, time 7 day
# [22] = tested on: Mycobacterium tuberculosis; assay: Additive antibacterial activity against Mycobacterium tuberculosis H37Ra assessed as fractional inhibitory concentration index at 3 to 50 uM measured after 7 days in presence of ethambutol by resazurin reduction microplate assay based checkerboard assay; format: functional; settings: dose 3-50 µM; time 7 day
# [23] = tested on: Mycobacterium tuberculosis; assay: Additive antibacterial activity against Mycobacterium tuberculosis H37Ra assessed as isoniazid MIC at 3 to 50 uM measured after 7 days by resazurin reduction microplate assay based checkerboard assay; format: functional; settings: 168 h, dose 3-50 µM, time 7 day
smiles,measurement,setting,value
O=C(CSc1nc2sc3c(c2c(=O)n1Cc1ccccc1)CCCC3)c1ccc(Cl)c(Cl)c1,MIC,[1],> 200 µM
N#CCC(=O)NC(=O)/C(C#N)=C/c1c[nH]c2ccccc12,MIC,[1],> 200 µM
Cc1ccc(C(=O)CSc2nc3sc4c(c3c(=O)n2Cc2ccccc2)CCCC4)cc1,MIC,[1],> 200 µM
Cc1cc(C)c2c(C(=O)NC3CCCCCCC3)c[nH]c2c1,MIC,[2],4 ng/mL
same,Tmax,[3],4 h
same,MIC,[4],≥ 250 ng/mL
same,Cmax,[5],2.47 µg/mL
same,Tmax,[6],2 h
same,Cmax,[7],0.49 µg/mL
C=CCn1c(SCC(=O)c2ccc(Cl)cc2)nc2ccccc2c1=N,MIC,[1],> 200 µM
N#C/C(=C\c1c[nH]c2ccccc12)C(=O)NCCc1ccccc1,MIC,[1],> 200 µM
N=c1c2ccccc2nc(SCC(=O)c2ccc(Cl)cc2)n1-c1ccccc1,MIC,[1],> 200 µM
CN1CCCC(CSc2nc(N)c3c4c(sc3n2)CCCC4)C1 (stereo not drawn),IC50,N-acetyltransferase Eis [8],0.15 µM
Cc1ccc(C(=O)CSc2nc3sc4c(c3c(=O)n2-c2ccccc2)CCCC4)cc1,MIC,[1],> 200 µM
CO[C@H]1/C=C/O[C@@]2(C)Oc3c(C)c(O)c4c(O)c(c(/C=N/N5CCN(C)CC5)c(O)c4c3C2=O)NC(=O)/C(C)=C\C=C\[C@H](C)[C@H](O)[C@@H](C)[C@@H](O)[C@@H](C)[C@H](OC(C)=O)[C@@H]1C [RIFAMPIN],MIC,[1],0.01 µM
C=CCn1c(SCC(=O)c2ccc(Cl)c(Cl)c2)nc2sc3c(c2c1=O)CCCC3,MIC,[1],> 200 µM
O=C(CSc1nc2sc3c(c2c(=O)n1Cc1ccccc1)CCCC3)c1cccc(O)c1,MIC,[1],200 µM
CC(C)OC(=O)/C(C#N)=C/c1c[nH]c2ccccc12,MIC,[1],100 µM
C=CCn1c(SCC(=O)c2ccc(Cl)cc2)nc2sc3c(c2c1=O)CCCC3,MIC,[1],> 200 µM
NNC(=O)c1ccncc1 [ISONIAZID],MIC,[1],0.23 µM
Cc1cc(C)c2c(C(=O)NC3CCCCCC3)c[nH]c2c1,MIC,[2],4 ng/mL
same,MIC,[4],≥ 250 ng/mL
COc1ccc(C(=O)CSc2nc3ccccc3c(=N)n2-c2ccccc2)cc1,MIC,[9],50 µM
same,Ki,N-acetyltransferase Eis [10],14.4 µM
same,MIC,[1],50 µM
same,fractional inhibitory concentration index (FICI),[11],2
same,fractional inhibitory concentration index (FICI),[12],2
same,MIC,[13],0.4 µM
same,IC50,N-acetyltransferase Eis [14],11 µM
same,fractional inhibitory concentration index (FICI),[15],3
same,MIC,[16],50 µM
same,deltaG,[17],-29.5 kJ/mol
same,MIC,[18],50 µM
same,MIC,[19],8 µM
same,MIC,[20],50 µM
same,MIC,[21],0.01 µM
same,fractional inhibitory concentration index (FICI),[22],2
same,MIC,[23],0.23 µM
N#C/C(=C\c1c[nH]c2ccccc12)C(=O)N1CCSCC1,MIC,[1],> 200 µM
Cc1ccc2[nH]cc(/C=C(\C#N)C(=O)NCCCc3ccccc3)c2c1,MIC,[1],> 200 µM
N#C/C(=C\c1c[nH]c2cccc([N+](=O)[O-])c12)C(=O)NCCCc1ccccc1,MIC,[1],> 200 µM
N#C/C(=C\c1c[nH]c2ccccc12)C(=O)N1CCOCC1,MIC,[1],> 200 µM
O=C(CSc1nc2sc3c(c2c(=O)n1-c1ccccc1)CCCC3)c1ccc(Cl)cc1,MIC,[1],> 200 µM
